Data as given in patent publication US9657351B2, “MRNA-based gene expression for personalizing patient cancer therapy with an MDM2 antagonist” (Hoffmann-La Roche Inc., priority 2013, dated 2017).

Legend:
Assay in all cases: COMPOUND A In Vitro Assay
Format in all cases: cell-based
786-O = details: Homo sapiens, 786-0, Kidney, TP53 Mutant
Excerpt: (§1) To generate an MDM2 antagonist therapy predictive signature, the response of MDM2 antagonist therapy in vitro with gene expression profiling (FIG. 1) is combined. A bank of 287 human cancer cell lines, collectively termed the Cell Lines for Oncology/Chugai ACcumulative Tumour EncycLopedia (CELLO/CACTEL), representing a broad array of diverse human cancer tumor types are subject to evaluation using several high-throughput genomic technology platforms. The mutational status of nucleic acids from each cell line is determined by exome sequencing. Messenger RNA (mRNA) expression levels at baseline, prior to MDM2 antagonist therapy, are obtained via RNA sequencing. MDM2 antagonist therapy COMPOUND A, sometimes referred to herein as RG7112, responses are obtained by assays known to those skilled in the art such as RNA sequencing and microarray measurement using Gene Chip Human Genome U133 Plus 2.0 Array. The MDM2 therapy responses are obtained by high throughout screening assays. Depending on their responses to COMPOUND A these cell lines are classified as either sensitive, defined as IC50<=1, or resistant, defined as IC50>=10.
(§2) 281 cells are treated with MDM2 antagonists and the IC50 (therapy response) is generated. The cell lines span a broad range of tumor cell types of derivation.

8305C = details: Homo sapiens, Thyroid gland, TP53 Mutant
Excerpt: as §1, §2

A-204 = details: Homo sapiens, A204, Muscle, TP53 Mutant
Excerpt: as §1, §2

AGS = details: Homo sapiens
Excerpt: as §1, §2

C32 = details: Homo sapiens, Skin, TP53 Wild type
Excerpt: as §1, §2

CCRF-CEM = details: Homo sapiens, Lymphocyte T, peripheral blood, TP53 Mutant
Excerpt: as §1, §2

COLO 205 = details: Homo sapiens, Intestine, large, colon, TP53 Mutant
Excerpt: as §1, §2

COLO-824 = details: Homo sapiens, Breast, TP53 Wild type
Excerpt: as §1, §2

HCC1954 = details: Homo sapiens, Breast, mammary gland, TP53 Mutant
Excerpt: as §1, §2

HCC38 = details: Homo sapiens, Breast, mammary gland, TP53 Mutant
Excerpt: as §1, §2

HDLM-2 = details: Homo sapiens, Lymphocyte B, TP53 Mutant
Excerpt: as §1, §2

HMCB = details: Homo sapiens, Skin, TP53 Mutant
Excerpt: as §1, §2

HUP-T4 = details: Homo sapiens, Pancreas, TP53 Mutant
Excerpt: as §1, §2

HepG2 = details: Homo sapiens
Excerpt: as §1, §2

MG-63 = details: Homo sapiens, Bone, TP53 Mutant
Excerpt: as §1, §2

MIA PaCa-2 = details: Homo sapiens, Pancreas, TP53 Mutant
Excerpt: as §1, §2

MKN-28 = details: Homo sapiens, Stomach, TP53 Mutant
Excerpt: as §1, §2

MKN-74 = details: Homo sapiens
Excerpt: as §1, §2

NCCIT = details: Homo sapiens, Germ cell, gametocyte, TP53 Mutant
Excerpt: as §1, §2

NCI-H1395 = details: Homo sapiens, Lung, TP53 Wild type
Excerpt: as §1, §2

NCI-H1437 = details: Homo sapiens, Lung, TP53 Mutant
Excerpt: as §1, §2

NCI-H1792 = details: Homo sapiens, Lung, TP53 Mutant
Excerpt: as §1, §2

NCI-H1838 = details: Homo sapiens, Lung, TP53 Mutant
Excerpt: as §1, §2

NCI-H1993 = details: Homo sapiens, Lung, TP53 Mutant
Excerpt: as §1, §2

NCI-H2023 = details: Homo sapiens, Lung, TP53 Mutant
Excerpt: as §1, §2

NCI-H522 = details: Homo sapiens, Lung, TP53 Mutant
Excerpt: as §1, §2

NCI-H929 = details: Homo sapiens, Lymphocyte B, bone marrow, TP53 Wild type
Excerpt: as §1, §2

OPM-2 = details: Homo sapiens, Lymphocyte B, TP53 Mutant
Excerpt: as §1, §2

PC-10 = details: Homo sapiens, PC10, Lung, TP53 Mutant
Excerpt: as §1, §2

PLC/PRF/5 = details: Homo sapiens, Liver, TP53 Mutant
Excerpt: as §1, §2

Ramos = details: Homo sapiens, Lymphocyte B, TP53 Wild type
Excerpt: as §1, §2

SBC-5 = details: Homo sapiens, Lung, TP53 Mutant
Excerpt: as §1, §2

SCC-25 = details: Homo sapiens, Tongue, TP53 Mutant
Excerpt: as §1, §2

SK-N-AS = details: Homo sapiens, Brain, TP53 Mutant
Excerpt: as §1, §2

SK-OV-3 = details: Homo sapiens, Ovary, TP53 Mutant
Excerpt: as §1, §2

T24 = details: Homo sapiens, T-24, Urinary, bladder, TP53 Mutant
Excerpt: as §1, §2

T98G = details: Homo sapiens, Brain, TP53 Mutant
Excerpt: as §1, §2

CCOc1cc(C(C)(C)C)ccc1C1=N[C@@](C)(c2ccc(Cl)cc2)[C@@](C)(c2ccc(Cl)cc2)N1C(=O)N1CCN(CCCS(C)(=O)=O)CC1 [COMPOUND A]
IC50 (786-O): 9.5 µM
IC50 (8305C): 24 µM
IC50 (A-204): 8.4 µM
IC50 (AGS; AGS cells): 0.1 µM
IC50 (AGS; Stomach, TP53 Wild type): 0.13 µM
IC50 (C32): 3 µM
IC50 (CCRF-CEM): 9.7 µM
IC50 (COLO 205): 9.1 µM
IC50 (COLO-824): 15 µM
IC50 (HCC1954): 12 µM
IC50 (HCC38): 12 µM
IC50 (HDLM-2): 33 µM
IC50 (HMCB): 15 µM
IC50 (HUP-T4): 17 µM
IC50 (HepG2; HepG2, HepG2, Liver, TP53 Wild type): 0.18 µM
IC50 (HepG2; HepG2, HepG2 cells): 0.2 µM
IC50 (MG-63): 16 µM
IC50 (MIA PaCa-2): 19 µM
IC50 (MKN-28): 8.1 µM
IC50 (MKN-74; MKN-74, MKN-74, Muscle, smooth, stomach, TP53 Wild type): 0.88 µM
IC50 (MKN-74; MKN-74, MKN-74 cells): 0.9 µM
IC50 (NCCIT): 11 µM
IC50 (NCI-H1395): 1.3 µM
IC50 (NCI-H1437): 10 µM
IC50 (NCI-H1792): 7 µM
IC50 (NCI-H1838): 9.8 µM
IC50 (NCI-H1993): 7.7 µM
IC50 (NCI-H2023): 5.8 µM
IC50 (NCI-H522): 22 µM
IC50 (NCI-H929): 0.3 µM
IC50 (OPM-2): 13 µM
IC50 (PC-10): 14 µM
IC50 (PLC/PRF/5): 7 µM
IC50 (Ramos): 8.8 µM
IC50 (SBC-5): 18 µM
IC50 (SCC-25): 9.4 µM
IC50 (SK-N-AS): 13 µM
IC50 (SK-OV-3): 17 µM
IC50 (T24): 21 µM
IC50 (T98G): 8.3 µM
